From US8703768B2, “Nitrogen containing heteroaryl compounds” (Hoffmann-La Roche Inc., priority 2010, dated 2014)

Target: human PDE10A (Homo sapiens (Human), UniProt Q9Y233)
Experiment: human PDE10A full length Scintillation Proximity Assay (SPA)
Assay type: biochemical
Conditions: 50 nM cGMP and 50 nM [3H]-cGMP, 20 minutes at room temperature; read-out: PDE10A inhibition IC50
In short: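 Radiometric SPA read-out: after 20 min at room temperature with [^3H]-cGMP/cGMP substrate, zinc sulphate (18 mM) bead stop reagent added and counts read after 1 h. Non-specific signal defined without enzyme; full-length protein used.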

human PDE10A, sequence (Q9Y233 other isoform, or with tags, fused parts or gaps): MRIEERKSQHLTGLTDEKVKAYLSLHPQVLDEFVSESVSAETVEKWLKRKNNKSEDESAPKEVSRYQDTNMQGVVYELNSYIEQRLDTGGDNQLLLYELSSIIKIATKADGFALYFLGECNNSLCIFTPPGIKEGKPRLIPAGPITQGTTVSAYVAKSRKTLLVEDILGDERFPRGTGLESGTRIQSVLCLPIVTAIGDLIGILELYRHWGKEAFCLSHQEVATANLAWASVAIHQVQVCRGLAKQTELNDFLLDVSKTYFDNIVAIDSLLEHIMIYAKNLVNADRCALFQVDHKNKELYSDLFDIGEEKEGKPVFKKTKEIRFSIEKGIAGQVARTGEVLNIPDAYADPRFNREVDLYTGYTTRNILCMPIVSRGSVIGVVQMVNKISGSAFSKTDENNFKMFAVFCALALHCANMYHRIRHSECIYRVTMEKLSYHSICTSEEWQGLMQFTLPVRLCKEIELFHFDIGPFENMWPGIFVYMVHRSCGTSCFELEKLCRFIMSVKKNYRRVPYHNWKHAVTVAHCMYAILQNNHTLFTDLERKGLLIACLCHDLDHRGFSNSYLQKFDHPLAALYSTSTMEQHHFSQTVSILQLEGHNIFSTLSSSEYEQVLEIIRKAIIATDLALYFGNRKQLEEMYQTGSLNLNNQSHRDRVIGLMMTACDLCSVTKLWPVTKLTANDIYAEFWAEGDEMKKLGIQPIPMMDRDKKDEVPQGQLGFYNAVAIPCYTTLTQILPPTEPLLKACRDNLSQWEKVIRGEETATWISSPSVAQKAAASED

| SMILES | IC50 |
| --- | --- |
| O=C(Nc1sccc1C(=O)N1CCOCC1)c1nc(C2CC2)ccc1Nc1cncnc1 [Example 90, 6-Cyclopropyl-3-(pyrimidin-5-ylamino)-pyridine-2-carboxylic acid [3-(morpholine-4-carbonyl)-thiophen-2-yl]-amide] | 0.4 nM |
| CC(C)c1cc(C(=O)N2CCOCC2)c(NC(=O)c2nc(C3CC3)ccc2Nc2cncnc2)s1 [Example 91, 6-Cyclopropyl-3-(pyrimidin-5-ylamino)-pyridine-2-carboxylic acid [5-isopropyl-3-(morpholine-4-carbonyl)-thiophen-2-yl]-amide] | 27.5 nM |
| CC(C)c1ncc(Nc2cncnc2)c(C(=O)Nc2cnccc2C(=O)NCC(C)(C)O)n1 [Example 92, 2-Isopropyl-5-(pyrimidin-5-ylamino)-pyrimidine-4-carboxylic acid [4-(2-hydroxy-2-methyl-propylcarbamoyl)-pyridin-3-yl]-amide] | 6.4 nM |
| CC(C)(O)CNC(=O)c1ccncc1NC(=O)c1nc(C(C)(C)C)ncc1Nc1cncnc1 [Example 93, 2-tert-Butyl-5-(pyrimidin-5-ylamino)-pyrimidine-4-carboxylic acid [4-(2-hydroxy-2-methyl-propylcarbamoyl)-pyridin-3-yl]-amide] | 4.3 nM |
| CCN(CC)C(=O)c1ccc(C(=O)NC)c(NC(=O)c2nc(C(C)(C)C)ncc2Nc2cncnc2)c1 [Example 94, 2-{[2-tert-Butyl-5-(pyrimidin-5-ylamino)-pyrimidine-4-carbonyl]-amino}-N^4,N^4-diethyl-N^1-methyl-terephthalamide] | 392 nM |
| Cn1cc(NC(=O)c2nc(C3CC3)cnc2Nc2cncnc2)c(C(=O)NCC(C)(C)O)n1 [Example 95, 6-Cyclopropyl-3-(pyrimidin-5-ylamino)-pyrazine-2-carboxylic acid [3-(2-hydroxy-2-methyl-propylcarbamoyl)-1-methyl-1H-pyrazol-4-yl]-amide] | 1.8 nM |
| CNC(=O)c1nn(C)cc1NC(=O)c1nc(C2CCCO2)cnc1Nc1cncnc1 (stereo not shown) [Example 96, 3-(Pyrimidin-5-ylamino)-6-(tetrahydro-furan-2-yl)-pyrazine-2-carboxylic acid (1-methyl-3-methylcarbamoyl-1H-pyrazol-4-yl)-amide] | 96 nM |
| CNC(=O)c1nn(C)cc1NC(=O)c1nc(C2CCOC2)cnc1Nc1cncnc1 (stereo not shown) [Example 102, 3-(Pyrimidin-5-ylamino)-6-(tetrahydro-furan-3-yl)-pyrazine-2-carboxylic acid (1-methyl-3-methylcarbamoyl-1H-pyrazol-4-yl)-amide] | 16.3 nM |
| CNC(=O)c1nn(C)cc1NC(=O)c1nc(C2CCCO2)ccc1Nc1cncnc1 (stereo not shown) [Example 103, 3-(Pyrimidin-5-ylamino)-6-(tetrahydro-furan-2-yl)-pyridine-2-carboxylic acid (1-methyl-3-methylcarbamoyl-1H-pyrazol-4-yl)-amide] | 58.7 nM |
| CC(C)(O)CNC(=O)c1cc(F)c(F)cc1NC(=O)c1nc(C2CC2)cnc1Nc1cncnc1 [Example 110, 6-Cyclopropyl-3-(pyrimidin-5-ylamino)-pyrazine-2-carboxylic acid [4,5-difluoro-2-(2-hydroxy-2-methyl-propylcarbamoyl)-phenyl]-amide] | 0.6 nM |
| CN(CC(C)(C)O)C(=O)c1nn(C)cc1NC(=O)c1nc(C2CC2)cnc1Nc1cncnc1 [Example 111, 6-Cyclopropyl-N-(3-((2-hydroxy-2-methylpropyl)(methyl)carbamoyl)-1-methyl-1H-pyrazol-4-yl)-3-(pyrimidin-5-ylamino)pyrazine-2-carboxamide] | 15 nM |
| Cc1ncc(Nc2cncnc2)c(C(=O)Nc2cn(C)nc2C(=O)NCC(C)(C)O)n1 [Example 112, N-(3-(2-Hydroxy-2-methylpropylcarbamoyl)-1-methyl-1H-pyrazol-4-yl)-2-methyl-5-(pyrimidin-5-ylamino)pyrimidine-4-carboxamide] | 79.6 nM |
| CNC(=O)c1nn(C)cc1NC(=O)c1nc(C(C)O)cnc1Nc1cncnc1 (stereo not shown) [Example 115, 6-(1-Hydroxy-ethyl)-3-(pyrimidin-5-ylamino)-pyrazine-2-carboxylic acid (1-methyl-3-methylcarbamoyl-1H-pyrazol-4-yl)-amide] | 171 nM |
| COCCN(C)C(=O)c1ncccc1NC(=O)c1nc(C2CC2)cnc1Nc1cncnc1 [Example 117, 6-Cyclopropyl-3-(pyrimidin-5-ylamino)-pyrazine-2-carboxylic acid {2-[(2-methoxy-ethyl)-methyl-carbamoyl]-pyridin-3-yl}-amide] | 26.8 nM |
| COCCN(C)C(=O)c1ncncc1NC(=O)c1nc(C2CC2)cnc1Nc1cncnc1 [Example 118, 5-{[6-Cyclopropyl-3-(pyrimidin-5-ylamino)-pyrazine-2-carbonyl]-amino}-pyrimidine-4-carboxylic acid (2-methoxy-ethyl)-methyl-amide] | 89.7 nM |
| Cn1ncc(NC(=O)c2nc(C3CC3)cnc2Nc2cncnc2)c1C(=O)NCC(C)(C)O [Example 119, 6-Cyclopropyl-3-(pyrimidin-5-ylamino)-pyrazine-2-carboxylic acid [5-(2-hydroxy-2-methyl-propylcarbamoyl)-1-methyl-1H-pyrazol-4-yl]-amide] | 4.5 nM |

Further lines, results first:

| IC50 | SMILES |
| --- | --- |
| 1.1 nM | CC(C)(O)CNC(=O)c1ncncc1NC(=O)c1nc(C2CC2)cnc1Nc1cncnc1 [Example 97, 5-{[6-Cyclopropyl-3-(pyrimidin-5-ylamino)-pyrazine-2-carbonyl]-amino}-pyrimidine-4-carboxylic acid (2-hydroxy-2-methyl-propyl)-amide] |
| 0.4 nM | CC(C)(O)CNC(=O)c1ncccc1NC(=O)c1nc(C2CC2)cnc1Nc1cncnc1 [Example 98, 6-Cyclopropyl-3-(pyrimidin-5-ylamino)-pyrazine-2-carboxylic acid [2-(2-hydroxy-2-methyl-propylcarbamoyl)-pyridin-3-yl]-amide] |
| 2.6 nM | CC(C)OCCNC(=O)c1ccncc1NC(=O)c1nc(C2CC2)cnc1Nc1cncnc1 [Example 99, 6-Cyclopropyl-3-(pyrimidin-5-ylamino)-pyrazine-2-carboxylic acid [4-(2-isopropoxy-ethylcarbamoyl)-pyridin-3-yl]-amide] |
| 2.5 nM | O=C(NC1CCOC1)c1ccncc1NC(=O)c1nc(C2CC2)cnc1Nc1cncnc1 (stereo not shown) [Example 100, 6-Cyclopropyl-3-(pyrimidin-5-ylamino)-pyrazine-2-carboxylic acid [4-(tetrahydro-furan-3-ylcarbamoyl)-pyridin-3-yl]-amide] |
| 1.5 nM | O=C(NCC1CCCO1)c1ccncc1NC(=O)c1nc(C2CC2)cnc1Nc1cncnc1 (stereo not shown) [Example 101, 6-Cyclopropyl-3-(pyrimidin-5-ylamino)-pyrazine-2-carboxylic acid {4-[(tetrahydro-furan-2-ylmethyl)-carbamoyl]-pyridin-3-yl}-amide] |
| 1.1 nM | CC(C)(O)CNC(=O)c1ccncc1NC(=O)c1nc(C2CC2)cnc1Nc1cncnc1 [Example 105, 6-Cyclopropyl-3-(pyrimidin-5-ylamino)-pyrazine-2-carboxylic acid [4-(2-hydroxy-2-methyl-propylcarbamoyl)-pyridin-3-yl]-amide] |
| 2.6 nM | O=C(NC1COC1)c1ccncc1NC(=O)c1nc(C2CC2)cnc1Nc1cncnc1 [Example 106, 6-Cyclopropyl-3-(pyrimidin-5-ylamino)-pyrazine-2-carboxylic acid [4-(oxetan-3-ylcarbamoyl)-pyridin-3-yl]-amide] |
| 117 nM | CCn1cc(NC(=O)c2nc(C3CC3)cnc2Nc2cncnc2)c(C(=O)NC)n1 [Example 107, 6-Cyclopropyl-N-(1-ethyl-3-(methylcarbamoyl)-1H-pyrazol-4-yl)-3-(pyrimidin-5-ylamino)pyrazine-2-carboxamide] |
| 39.7 nM | CCn1cc(NC(=O)c2nc(C3CC3)cnc2Nc2cncnc2)c(C(=O)NCC2CCCO2)n1 (stereo not shown) [Example 108, 6-Cyclopropyl-N-(1-ethyl-3-((tetrahydrofuran-2-yl)methylcarbamoyl)-1H-pyrazol-4-yl)-3-(pyrimidin-5-ylamino)pyrazine-2-carboxamide] |
| 18.9 nM | Cn1cc(NC(=O)c2nc(C3CC3)cnc2Nc2cncnc2)c(C(=O)NCC2CCCO2)n1 (stereo not shown) [Example 109, 6-Cyclopropyl-N-(1-methyl-3-((tetrahydrofuran-2-yl)methylcarbamoyl)-1H-pyrazol-4-yl)-3-(pyrimidin-5-ylamino)pyrazine-2-carboxamide] |
| 1.6 nM | COC(C)(C)CNC(=O)c1ccncc1NC(=O)c1nc(C2CC2)cnc1Nc1cncnc1 [Example 113, 6-Cyclopropyl-3-(pyrimidin-5-ylamino)-pyrazine-2-carboxylic acid [4-(2-methoxy-2-methyl-propylcarbamoyl)-pyridin-3-yl]-amide] |
| 1.1 nM | COCC(C)(C)CNC(=O)c1ccncc1NC(=O)c1nc(C2CC2)cnc1Nc1cncnc1 [Example 114, 6-Cyclopropyl-3-(pyrimidin-5-ylamino)-pyrazine-2-carboxylic acid [4-(3-methoxy-2,2-dimethyl-propylcarbamoyl)-pyridin-3-yl]-amide] |
| 4.5 nM | CNC(=O)c1c(NC(=O)c2nc(C3CC3)cnc2Nc2cncnc2)cnn1C [Example 116, 6-Cyclopropyl-3-(pyrimidin-5-ylamino)-pyrazine-2-carboxylic acid (1-methyl-5-methylcarbamoyl-1H-pyrazol-4-yl)-amide] |
| 0.4 nM | CC(C)(O)CNC(=O)c1cnccc1NC(=O)c1nc(C2CC2)cnc1Nc1cncnc1 [Example 120, 6-Cyclopropyl-3-(pyrimidin-5-ylamino)-pyrazine-2-carboxylic acid [3-(2-hydroxy-2-methyl-propylcarbamoyl)-pyridin-4-yl]-amide] |
| 5.8 nM | CC1(NC(=O)c2ccncc2NC(=O)c2nc(C3CC3)cnc2Nc2cncnc2)COC1 [Example 121, 6-Cyclopropyl-3-(pyrimidin-5-ylamino)-pyrazine-2-carboxylic acid [4-(3-methyl-oxetan-3-ylcarbamoyl)-pyridin-3-yl]-amide] |
